Data set [1] is described as follows: Stability of a TCO compound under various conditions (HPLC-MS/PDA and/or GC-MS). The format is physicochemical. The settings on record: for half-life at 2.3 mM: read-out: Stability of TCO: t1/2. How it is done:
The TCO stock solution (10 μL 25 mM; 2.5*10^−7 mol) was added to a solution of the specific condition (100 μL). The mixture was stirred at the specific condition for a certain amount of time, and then the fate of the TCO compound was monitored by HPLC-MS/PDA analysis and/or GC-MS analysis, and an estimation of its stability was made.
(§1) Conditions: A) in acetonitrile with 5 equivalents of pyridine per TCO at 20° C.
B) in acetonitrile with 5 equivalents of DIPEA per TCO at 20° C. C) in acetonitrile with 5 equivalents of piperidine per TCO at 20° C. D) in acetonitrile with 5 equivalents of n-butylamine per TCO at 20° C. E) in acetonitrile with 5 equivalents of 2-mercaptoethanol per TCO at 20° C. F) in tetrahydrofuran with 5 equivalents of triphenylphosphine per TCO at 20° C. G) in acetonitrile with 5 equivalents of DCC per TCO at 20° C. H) in acetonitrile with 5 equivalents of PyBOP per TCO at 20° C. […] J) in chloroform at 20° C. […] L) in chloroform with 1 v % of trifluoroacetic acid at 20° C. M) in chloroform with 10 v % of trifluoroacetic acid at 20° C. N) in chloroform with 33 v % of trifluoroacetic acid at 20° C. Z) in 25% acetonitrile in water at 20° C.

Data set [2] can be described thus: Tetrazine-induced deprotection (TCO activation) under various conditions. How it is done:
In addition, the tetrazine-induced TCO activation was studied under the same conditions. […] In addition to amines, also hydroxy and carboxylic acids form stable conjugates with TCO and can subsequently be cleaved in a range of conditions.
The TCO stock solution (10 μL 25 mM in acetonitrile; 2.5*10^−7 mol) was added to a solution of the specific condition (100 μL). A solution of 3,6-dimethyl-1,2,4,5-tetrazine (8, 20 uL 25 mM in acetonitrile; 5.0*10^−7 mol) was added, and the mixture was stirred at the specific condition for a certain amount of time. The reaction was monitored by HPLC-MS/PDA analysis and/or GC-MS analysis, and the percentage of deprotection was estimated.
as §1
B) in acetonitrile with 5 equivalents of DIPEA per TCO at 20° C. C) in acetonitrile with 5 equivalents of piperidine per TCO at 20° C. D) in acetonitrile with 5 equivalents of n-butylamine per TCO at 20° C. E) in acetonitrile with 5 equivalents of 2-mercaptoethanol per TCO at 20° C. F) in tetrahydrofuran with 5 equivalents of triphenylphosphine per TCO at 20° C. G) in acetonitrile with 5 equivalents of DCC per TCO at 20° C. H) in acetonitrile with 5 equivalents of PyBOP per TCO at 20° C. I) in acetonitrile with 1 v % of formic acid at 20° C. J) in chloroform at 20° C. K) in chloroform with 1 v % of formic acid at 20° C. L) in chloroform with 1 v % of trifluoroacetic acid at 20° C. M) in chloroform with 10 v % of trifluoroacetic acid at 20° C. N) in chloroform with 33 v % of trifluoroacetic acid at 20° C. Z) in 25% acetonitrile in water at 20° C.

Data set [3] is described as follows: Tetrazine-induced doxorubicin release from Axial-TCO-1-Doxorubicin in PBS/MeCN (LCMS). How it is done: PBS/MeCN (1 mL, 3/1), preheated at 37° C. and TCO-2-doxorubicin (10 μL of a 2.5 mM solution in DMSO, 1 eq.) were added to a preheated injection vial. Tetrazine (10 μL of a 25 mM solution in DMSO, 10 eq.) was added and the vial was vortexed. After incubation for 1 hour at 37° C., the vial was placed in LC-MS autosampler at 10° C. LC-MS analysis was performed using a 5% to 100% H2O/MeCN gradient over 11 minutes with a C18 reverse-phase column at 35° C. A control sample containing only TCO-2-doxorubicin (1 eq), as well as a sample containing only doxorubicin (1 eq.), was analyzed under the same conditions. All tetrazine containing samples were measured twice and the doxorubicin control sample was run after every three other samples during an overnight program. The peak area of released dox was divided by the peak area of TCO-2-doxorubicin or doxorubicin reference signals and multiplied by 100 to calculate the percentage of release. The calculated percentage of release was corrected when it was observed that the TCO-2-doxorubicin was not fully converted to inv-DA adduct(s). This was done by quantification of remaining dox-TCO, but full conversion was almost always observed. Peak areas (used for doxorubin quantification) were determined at A=470-500 nm where characteristic doxorubicin absorption takes place and peak integration was done by hand.
(§2) In a similar fashion as Example 3, the release of doxorubicin from TCO-1-doxorubucin as induced by tetrazines 1,8,9 in PBS/ACN and in serum was measured.

Data set [4] in a line: Tetrazine-induced doxorubicin release from Axial-TCO-1-Doxorubicin in serum (HPLC-MS/PDA). Details: species or system mouse. The settings on record: 37° C. How it is done: as §2
Serum experiments were conducted as follows:
TCO-1-doxorubucin (6.25×10^−8 mol) was dissolved in DMSO (0.050 mL), and PBS (0.475 mL) was added slowly in aliquots of 0.010 mL, followed by mouse serum (0.475 mL). […] Subsequently, cold MeCN (0.200 mL) was added, followed by centrifugation at 13400 rpm for 5 min. The supernatant was used for further analysis by HPLCMS/PDA analysis to determine the release of doxorubicin.

Setting [5] is: 0.1M HCOOH buffer, pH = 2.0 for 2 day, 20° C.
[6] abbreviates: 0.1M NH3 buffer, pH = 11 for 5 day, 20° C.
Where [7] appears, read: 0.1M NH4OAc buffer, pH = 7.0 for 5 day, 20° C.
Setting [8] is: 0.1M NH4OAc buffer, pH = 8.0 for 8 day, 20° C.
Setting [9] is: 0.1M NH4OAc buffer, pH = 9.0 for 8 day, 20° C.
[10] abbreviates: 0.1M NH4OAc buffer, pH = 10.0 for 8 day, 20° C.
The mark [11] stands for this setting: 10% MeCN in H2O at 70° C. for 5 day.
Where [12] appears, read: 10% MeCN in H2O for 5 day, 20° C.
Setting [13] is: with 5 eq. of DIPEA in MeCN for 16 h, 20° C.
The mark [14] stands for this setting: with 5 eq. of HCOOH in MeCN for 16 h, 20° C.
Setting [15] is: with 5 eq. of PyBOP in MeCN for 16 h, 20° C.
Setting [16] is: with 5 eq. of pyridine in MeCN for 16 h, 20° C.

Structures are written as SMILES. Like-named read-outs stand apart in the source and are kept apart here.

The values below come from US20150297741A1, “BIO-ORTHOGONAL DRUG ACTIVATION” (TAGWORKS PHARMACEUTICALS B.V., priority 2012, published 2015).

For the compound `COc1cc(COC(=O)NC2CC/C=C/CC[C@@H]2N)cc(OC)c1OC` (stereo partly shown), the “Stability of TCO” value in data set [1] (setting [5]), in data set [1] (setting [7]), in data set [1] (setting [8]), in data set [1] (setting [9]), in data set [1] (setting [10]) and in data set [1] (setting [12]) was “stable” throughout. Besides, the “Stability of TCO: cyclization” value in data set [1] (setting [6]) and in data set [1] (setting [11]) was less than 5% in each case. The “Deprotection (%)” value in data set [2] (setting [5]) is listed as 0%; in data set [2] (setting [6]) it was 87%; in data set [2] (setting [7]), 0%; in data set [2] (setting [8]), 0%; in data set [2] (setting [9]), 25%; in data set [2] (setting [10]), 81%. In addition, the “Deprotection (%)” value in data set [2] (setting [11]) is 50%; in data set [2] (setting [12]) it was 0%.

Regarding `N[C@H]1CC/C=C/CCC1NC(=O)Oc1ccccc1` (stereo partly shown), the half-life at 2.3 mM was found to be 80 h in data set [1] (0.1M NH4OAc buffer, pH = 7.0, 20° C.); 17 h in data set [1] (0.1M NH4OAc buffer, pH = 8.0, 20° C.); 5.3 h in data set [1] (0.1M NH4OAc buffer, pH = 9.0, 20° C.). Besides, the “Stability of TCO: cyclization” value in data set [1] (setting [13]) came out at 6.7%; in data set [1] (setting [14]), 1.9%; in data set [1] (setting [15]) it was 5.9%; in data set [1] (setting [16]), 2.6%. In addition, the “Deprotection (%)” value is recorded as 98.8% in data set [2] (setting [13]), 33.9% in data set [2] (setting [14]), 24.4% in data set [2] (setting [15]) and 71.7% in data set [2] (setting [16]).

As for `NC1/C=C/CCCCC1NC(=O)Oc1ccccc1` (stereo not shown), the half-life at 2.3 mM in data set [1] (in PBS buffer, 20° C.) stood at 65 h.

On to `NC1CCCC/C=C/C1NC(=O)Oc1ccccc1` (stereo not shown), for which, in data set [1] (in PBS buffer, 20° C.), the half-life at 2.3 mM was 29 h.

Turning to `COc1cccc2c1C(=O)c1c(O)c3c(c(O)c1C2=O)C[C@@](O)(C(=O)CO)C[C@@H]3O[C@H]1CC(NC(=O)O[C@H]2/C=C/CCCCC2)[C@H](O)C(C)O1` (stereo partly shown) [Axial-TCO-1-Doxorubicin], the “Doxorubicin release (%) from Axial-TCO-1-Doxorubicin without tetrazine” value was determined as 0% in data set [3] (no tetrazine, 37° C., PBS (72 h), column PBS/MeCN (3/1)) and 0% in data set [4] (no tetrazine, serum (24 h)).

Regarding `Cc1nnc(C)nn1` [tetrazine 8, 3,6-dimethyl-1,2,4,5-tetrazine], the “Doxorubicin release (%) from Axial-TCO-1-Doxorubicin” value is 79 ± 3% in data set [3] (10 equiv. tetrazine, 25% MeCN in PBS (PBS/MeCN 3/1), 37° C., LCMS at 4 h, n = 3) and 75 ± 4% in data set [4] (10 equiv. tetrazine, 50% serum, LCMS at 4 h, n = 3). Besides, the “release of doxorubicin from TCO-1-doxorubucin, comparison of tetrazines 1, 8, 9” value in data set [3] (PBS/ACN and serum) was “highest release”.
